Laboratory results from PMC7226045, “Ensartinib (X-396) Effectively Modulates Pharmacokinetic Resistance Mediated by ABCB1 and ABCG2 Drug Efflux Transporters and CYP3A4 Biotransformation Enzyme” (Cancers, 2020).
pIC50: −log10 of the molar value.

Experiments:
ABCB1 = test system: T1, ABCB1; assay: ABCB1 ATPase assay (ABCB1-Sf9 membrane fraction); format: biochemical; settings: ABCB1-Sf9 membranes
T1 construct: purchased Solvo Biotechnology SB MDR1/P-gp; host or cells: Sf9 cell membranes
Method: The ABCB1 ATPase assay was performed with minor modifications as described previously. The ATPase activitity was determined using ABCB1 […] ATPase Kit according to the manufacturer’s instructions. Sf9 cell membranes (4 µg protein per well) were mixed with various concentrations of ensartinib. The reaction mixture was then incubated for 10 min at 37 °C in the presence or absence of 1.2 mM sodium orthovanadate. The ATPase reactions were started by the addition of 10 mM ATP magnesium salt and stopped 10 min later. After 30 min incubation, absorbance was measured at 590 nm using the microplate reader (Infinite M200, Tecan, Salzburg, Austria). Phosphate standards were present in each plate; verapamil was used as positive control for ABCB1 stimulation.

HL60-parent cells = assay: XTT proliferation / drug combination assay, HL60-parent; format: cell-based, human
Method: Briefly, HL60-par, HL60-ABCB1, HL60-ABCG2, and HL60-ABCC1 cells were seeded at 2 × 10^4 cells/well in 96-well culture plates. Immediately after seeding, dilutions of the tested drugs or drug combinations were added to the cells. The plates were then incubated under standard conditions (37 °C, 5% CO2) for 48 h, after which XTT solution in PBS (1 mg/mL) and phenazine methosulfate (7.50 µg/mL) were added to the cells and the plates were incubated for another 5 h. Finally, the cells’ absorbance was measured at 450 nm using a microplate reader (Infinite M200, Tecan, Salzburg, Austria). This method was used to assess the effect of ABC transporters on sensitivity to ensartinib and in drug combination assays.
The parent MDCKII and HL60 cells and their ABCB1-, ABCG2-, and ABCC1-overexpressing counterparts were seeded at the densities specified above onto 96-well culture plates and cultured for 24 h. The medium was subsequently replaced with serial dilutions of ensartinib alone or with various concentrations of a model MDR-susceptible cytostatic agent (daunorubicin or mitoxantrone) with or without 10 µM ensartinib. After 48 h incubation, the cells’ viability was determined as described above. In addition to performing IC50-shift analyses, the viability measurements were converted to FA (fraction of cells affected) values and the effects of drug combinations were quantified using the Chou-Talalay combination index (CI) method as implemented in CompuSyn 3.0.1 (ComboSyn Inc., Paramus, NJ, USA). The effects of concomitantly administered drugs were classified as synergistic (CI < 0.9), additive (0.9 < CI < 1.1), or antagonistic (CI > 1.1) based on the computed CI values [57].

HL60-ABCC1 cells = assay: XTT proliferation assay, HL60-ABCC1; format: cell-based; settings: Homo sapiens, 48 h, read-out: IC50, sensitivity to ensartinib
Method: The MTT method is not readily adapted for use with suspension cell cultures, therefore the XTT assay was used to assess the proliferation of HL60 cells. Briefly, HL60-par, HL60-ABCB1, HL60-ABCG2, and HL60-ABCC1 cells were seeded at 2 × 10^4 cells/well in 96-well culture plates. Immediately after seeding, dilutions of the tested drugs or drug combinations were added to the cells. The plates were then incubated under standard conditions (37 °C, 5% CO2) for 48 h, after which XTT solution in PBS (1 mg/mL) and phenazine methosulfate (7.50 µg/mL) were added to the cells and the plates were incubated for another 5 h. Finally, the cells’ absorbance was measured at 450 nm using a microplate reader (Infinite M200, Tecan, Salzburg, Austria). This method was used to assess the effect of ABC transporters on sensitivity to ensartinib and in drug combination assays.

[1] = MDCKII monolayer transport assay, MDCKII-par; format: in vitro ADME, canine; settings: dog, MDCK, 1 µM ensartinib, read-out: transport ratio (r), BA/AB
Method: (§1) Transport assays were performed on microporous polycarbonate membrane filters (3 µm pore size, 24 mm diameter, Transwell 3414; Costar, Corning, NY, USA) using MDCKII parental as well as ABCB1-, ABCG2-, and ABCC1-overexpressing MDCKII cells. The cells were seeded at a density of 1.5 × 10^6 cells per insert and cultured to full confluence for 7 days with media exchanges on the second and fourth days. Before the start of the transport experiments, inserts were washed with 1 × PBS on both the apical and basal sides. The cells were then preincubated in Opti-MEM with or without model inhibitors (1 µM LY335979, 1 µM Ko143, or 25 µM MK-571). […] Ensartinib levels in samples were measured by UHPLC-MS/MS (see below). […]
(§2) Samples from the monolayer transport assays (10 µL) were mixed with 100 µL of acetonitrile and 100 µL of methanol, vortexed for 15 min, and centrifuged at 14,500 rpm for 3 min. […] The MS source parameters were set to the following: drying gas, 320 °C, flow rate 10 l/min; sheath gas, 400 °C at 12 l/min; nebulizer pressure 25 psi; capillary voltage 4000 V; nozzle voltage 0 V. Transitions of [M+H]^+ ions were detected using a dwell time of 150 ms, a cell acceleration of 4 V, and fragmentor voltages of 137 V for 547→357, 257 and 120 transitions (corresponding to collision energies of 16, 32, and 56 V).

ABCG2 = biological target: T2, ABCG2 (Homo sapiens, UniProt Q9UNQ0); assay: MDCKII monolayer transport assay, MDCKII-ABCG2; format: in vitro ADME; settings: dog, 1 µM ensartinib, read-out: transport ratio (r), BA/AB
T2 construct: expressed in transfected cells; host or cells: MDCKII-ABCG2 (from Dr. Alfred Schinkel, The Netherlands Cancer Institute)
T2 sequence (Q9UNQ0 1-655): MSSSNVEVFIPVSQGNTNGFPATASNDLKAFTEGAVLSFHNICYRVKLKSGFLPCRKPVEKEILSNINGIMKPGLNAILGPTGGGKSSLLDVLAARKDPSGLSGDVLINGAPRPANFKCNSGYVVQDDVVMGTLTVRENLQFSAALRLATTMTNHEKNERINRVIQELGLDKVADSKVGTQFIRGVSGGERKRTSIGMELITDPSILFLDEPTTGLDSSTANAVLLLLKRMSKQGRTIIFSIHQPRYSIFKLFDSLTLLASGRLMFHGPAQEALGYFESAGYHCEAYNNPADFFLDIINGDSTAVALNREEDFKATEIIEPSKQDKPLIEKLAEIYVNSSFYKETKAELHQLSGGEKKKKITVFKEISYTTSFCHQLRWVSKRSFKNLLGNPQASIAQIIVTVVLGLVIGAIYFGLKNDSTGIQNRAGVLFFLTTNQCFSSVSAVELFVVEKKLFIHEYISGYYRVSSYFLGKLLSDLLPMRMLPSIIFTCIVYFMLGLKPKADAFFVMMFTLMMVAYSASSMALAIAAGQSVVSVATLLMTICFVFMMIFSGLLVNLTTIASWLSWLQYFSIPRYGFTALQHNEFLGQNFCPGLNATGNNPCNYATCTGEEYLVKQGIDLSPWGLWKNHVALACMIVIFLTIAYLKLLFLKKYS
Method: as §1, §2

effect on baseline vanadate-sensitive ATPase activity of ABCB1 (ABCB1; activation experiment): significantly increased
effect on verapamil-stimulated ATPase activity of ABCB1 (ABCB1; inhibition experiment): significantly decreased
pIC50 (HL60-parent cells; Homo sapiens, HL60-parent, 48 h, XTT, read-out: IC50, sensitivity to ensartinib): 4.50
pIC50 (HL60-ABCC1 cells): 4.56
efflux ratio at 4 h, 1 µM [1]: 1.01
efflux ratio at 4 h, 1 µM (ABCG2): 1.15
SMILES: C[C@@H]1CN(C(=O)c2ccc(NC(=O)c3cc(O[C@H](C)c4c(Cl)ccc(F)c4Cl)c(N)nn3)cc2)C[C@H](C)N1 [ensartinib, Ensartinib]
combination effect (Chou-Talalay combination index) (HL60-parent cells; HL60 parental, 10 µM ensartinib with daunorubicin or mitoxantrone, whole FA range): antagonistic or additive
